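Results reflect a 48-hour exposure of cells in 96-well plates to compound at five concentrations. At the GI50, growth is halved.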 Activity calls are given as the source filed them. No stated cut-off is given here; in the data, active = GI50 up to about 1.1 µM and inactive = higher.
How the values were obtained:
Experiment in all cases: inhibition of tumour cell growth, NCI panel, 48 h
IGROV-1 = tested on: IGROV-1
HCC 2998 = tested on: HCC 2998
UO-31 = tested on: UO-31
KM12 = tested on: KM12
SF-268 = tested on: SF-268
PC-3 = tested on: PC-3
HT-29 = tested on: HT-29
HCT-116 = tested on: HCT-116
U-251 = tested on: U-251
SW-620 = tested on: SW-620
DU-145 = tested on: DU-145
TK-10 = tested on: TK-10
EKVX = tested on: EKVX
OVCAR-5 = tested on: OVCAR-5
SK-MEL-2 = tested on: SK-MEL-2
MDA-N = tested on: MDA-N
MCF7 = tested on: MCF7
RPMI-8226 = tested on: RPMI-8226
SF-539 = tested on: SF-539
786-0 = tested on: 786-0

Structure (SMILES)	GI50 (IGROV-1)	GI50 (HCC 2998)	GI50 (UO-31)	GI50 (KM12)	GI50 (SF-268)	GI50 (PC-3)	GI50 (HT-29)	GI50 (HCT-116)	GI50 (U-251)	GI50 (SW-620)	GI50 (DU-145)	GI50 (TK-10)	GI50 (EKVX)	GI50 (OVCAR-5)	GI50 (SK-MEL-2)	GI50 (MDA-N)	GI50 (MCF7)	GI50 (RPMI-8226)	GI50 (SF-539)	GI50 (786-0)
CC1=C(Nc2c(C)cc(O)cc2O)C(=O)C=c2oc3c(c21)C(C)=C(Nc1c(C)cc(O)cc1O)C(=O)C=3	30.1 µM (inactive)	23.2 µM (inactive)	50.8 µM (inactive)	28.9 µM (inactive)	45.5 µM (inactive)	24.2 µM (inactive)	28 µM (inactive)	26.5 µM (inactive)	37.8 µM (inactive)	35.5 µM (inactive)	54.3 µM (inactive)	94.8 µM (inactive)	47.5 µM (inactive)	47.5 µM (inactive)	34.1 µM (inactive)	18.6 µM (inactive)	26.5 µM (inactive)	28.8 µM (inactive)	19.5 µM (inactive)	54.1 µM (inactive)
CCCNC(=S)N/C=C1\C(=O)Nc2ccccc2C1=O	> 100 µM (inactive)	> 100 µM (inactive)	> 100 µM (inactive)	> 100 µM (inactive)	> 100 µM (inactive)	> 100 µM (inactive)	> 100 µM (inactive)	> 100 µM (inactive)	> 100 µM (inactive)	> 100 µM (inactive)	> 100 µM (inactive)	> 100 µM (inactive)	> 100 µM (inactive)	> 100 µM (inactive)	> 100 µM (inactive)	> 100 µM (inactive)	> 100 µM (inactive)	> 100 µM (inactive)	> 100 µM (inactive)	> 100 µM (inactive)
O=c1[nH]nc(Cc2ccc([N+](=O)[O-])cc2)n1CCO	> 100 µM (inactive)	> 100 µM (inactive)	> 100 µM (inactive)	> 100 µM (inactive)	> 100 µM (inactive)	> 100 µM (inactive)	> 100 µM (inactive)	> 100 µM (inactive)	> 100 µM (inactive)	> 100 µM (inactive)	> 100 µM (inactive)	> 100 µM (inactive)	> 100 µM (inactive)	> 100 µM (inactive)	> 100 µM (inactive)	> 100 µM (inactive)	> 100 µM (inactive)	> 100 µM (inactive)	> 100 µM (inactive)	> 100 µM (inactive)
CC(=O)NNc1nc(C)c(C(/C=C/c2ccccc2O)=N/N=C(N)N)s1	> 100 µM (inactive)	> 100 µM (inactive)	> 100 µM (inactive)	> 100 µM (inactive)	> 100 µM (inactive)	> 100 µM (inactive)	> 100 µM (inactive)	> 100 µM (inactive)	> 100 µM (inactive)	> 100 µM (inactive)	> 100 µM (inactive)	> 100 µM (inactive)	93.8 µM (inactive)	> 100 µM (inactive)	> 100 µM (inactive)	> 100 µM (inactive)	> 100 µM (inactive)	> 100 µM (inactive)	> 100 µM (inactive)	> 100 µM (inactive)
CC(C)/C(Cl)=N\OC(=O)Nc1ccc(S(N)(=O)=O)cc1	17.5 µM (inactive)	18 µM (inactive)	16.6 µM (inactive)	18.4 µM (inactive)	23.9 µM (inactive)	18.5 µM (inactive)	22.4 µM (inactive)	13.5 µM (inactive)	19.5 µM (inactive)	1.86 µM (inactive)	17.9 µM (inactive)	17.9 µM (inactive)	18.5 µM (inactive)	18.3 µM (inactive)	18.7 µM (inactive)	18.2 µM (inactive)	12.1 µM (inactive)	2.16 µM (inactive)	16.8 µM (inactive)	17.3 µM (inactive)
COc1cc(C)cc2c1C(=O)C(Br)=CC2=O	17.7 µM (inactive)	19.5 µM (inactive)	5.38 µM (inactive)	15 µM (inactive)	16.4 µM (inactive)	17 µM (inactive)	8.22 µM (inactive)	6.7 µM (inactive)	19.5 µM (inactive)	1.89 µM (inactive)	18.3 µM (inactive)	2.49 µM (inactive)	17.7 µM (inactive)	19.8 µM (inactive)	14.4 µM (inactive)	3.56 µM (inactive)	4.48 µM (inactive)	3.13 µM (inactive)	15.2 µM (inactive)	3.92 µM (inactive)
O=[N+]([O-])c1cccc2nc3ccccc3c(NCCCCCNc3c4ccccc4nc4cccc([N+](=O)[O-])c34)c12	0.202 µM (active)	0.0243 µM (active)	0.134 µM (active)	0.0461 µM (active)	0.0313 µM (active)	0.102 µM (active)	0.0195 µM (active)	0.0117 µM (active)	0.0368 µM (active)	0.0158 µM (active)	0.0211 µM (active)	0.0242 µM (active)	0.133 µM (active)	0.209 µM (active)	0.159 µM (active)	0.0536 µM (active)	0.0161 µM (active)	0.00828 µM (active)	0.0304 µM (active)	0.0157 µM (active)
Cn1cc2c(=O)n3ncn(-c4ccc(Br)cc4)c3nc2n1	> 100 µM (inactive)	> 100 µM (inactive)	> 100 µM (inactive)	> 100 µM (inactive)	> 100 µM (inactive)	> 100 µM (inactive)	> 100 µM (inactive)	> 100 µM (inactive)	> 100 µM (inactive)	> 100 µM (inactive)	> 100 µM (inactive)	> 100 µM (inactive)	> 100 µM (inactive)	> 100 µM (inactive)	> 100 µM (inactive)	> 100 µM (inactive)	> 100 µM (inactive)	> 100 µM (inactive)	> 100 µM (inactive)	> 100 µM (inactive)
CN(C)C(=S)SN(C)C(=O)Nc1ccccc1	26 µM (inactive)	17.3 µM (inactive)	57.7 µM (inactive)	12.1 µM (inactive)	38.4 µM (inactive)	7.43 µM (inactive)	1.69 µM (inactive)	8.91 µM (inactive)	18 µM (inactive)	7.28 µM (inactive)	63 µM (inactive)	> 96.2 µM (inactive)	> 86.9 µM (inactive)	12.2 µM (inactive)	39.4 µM (inactive)	9.53 µM (inactive)	2.67 µM (inactive)	15.7 µM (inactive)	34.1 µM (inactive)	6.62 µM (inactive)
Brc1cccc(C2ON=C(c3ccccc3)N2C23CC4CC(CC(C4)C2)C3)c1 (stereo not given)	> 10 µM (inactive)	> 10 µM (inactive)	> 10 µM (inactive)	> 10 µM (inactive)	> 10 µM (inactive)	> 10 µM (inactive)	> 10 µM (inactive)	> 10 µM (inactive)	> 10 µM (inactive)	> 10 µM (inactive)	> 10 µM (inactive)	> 10 µM (inactive)	> 10 µM (inactive)	> 10 µM (inactive)	> 10 µM (inactive)	> 10 µM (inactive)	> 10 µM (inactive)	> 10 µM (inactive)	> 10 µM (inactive)	> 10 µM (inactive)
Cc1ccc([C@H]2CC(=O)C[C@H](c3ccc(C)cc3)C23C(=O)c2ccccc2C3=O)cc1	40 µM (inactive)	57.3 µM (inactive)	> 100 µM (inactive)	> 100 µM (inactive)	23 µM (inactive)	14.9 µM (inactive)	67.3 µM (inactive)	34.6 µM (inactive)	16.7 µM (inactive)	94.6 µM (inactive)	> 100 µM (inactive)	22.2 µM (inactive)	> 100 µM (inactive)	> 100 µM (inactive)	31.2 µM (inactive)	52.8 µM (inactive)	17 µM (inactive)	43.2 µM (inactive)	32.4 µM (inactive)	17.1 µM (inactive)
COc1cc2cc(C(=O)N3CC(COS(C)(=O)=O)c4c3cc(N)c3ccccc43)[nH]c2c(OC)c1OC (stereo not given)	0.0228 µM (active)	0.0148 µM (active)	0.0141 µM (active)	0.0194 µM (active)	0.0188 µM (active)	0.0422 µM (active)	< 0.01 µM (active)	0.0108 µM (active)	0.0141 µM (active)	0.0148 µM (active)	0.0154 µM (active)	< 0.01 µM (active)	0.0216 µM (active)	0.021 µM (active)	0.0716 µM (active)	0.0195 µM (active)	< 0.0122 µM (active)	0.0175 µM (active)	0.0177 µM (active)	< 0.01 µM (active)
Cc1cc(N(C)C)c2ccccc2[n+]1CCCCCCCCCC[n+]1c(C)cc(N(C)C)c2ccccc21.[O-][Cl+3]([O-])([O-])[O-].[O-][Cl+3]([O-])([O-])[O-]	6.05 µM (inactive)	0.893 µM (active)	3.38 µM (inactive)	0.282 µM (active)	0.731 µM (active)	0.589 µM (active)	0.429 µM (active)	0.743 µM (active)	0.124 µM (active)	1.92 µM (inactive)	1.58 µM (inactive)	3.29 µM (inactive)	1.32 µM (inactive)	3.3 µM (inactive)	0.962 µM (active)	0.485 µM (active)	0.434 µM (active)	0.128 µM (active)	0.991 µM (active)	2.59 µM (inactive)
COC(=O)NCCc1n[nH]c2c1C(=O)C=C(Nc1ccccc1)C2=O	24.5 µM (inactive)	38.2 µM (inactive)	35.3 µM (inactive)	18.4 µM (inactive)	26 µM (inactive)	30.3 µM (inactive)	24.1 µM (inactive)	21.7 µM (inactive)	15.2 µM (inactive)	25.6 µM (inactive)	47.5 µM (inactive)	> 100 µM (inactive)	27.3 µM (inactive)	29 µM (inactive)	20.6 µM (inactive)	17.9 µM (inactive)	15.5 µM (inactive)	19.1 µM (inactive)	20.7 µM (inactive)	47.3 µM (inactive)
